# Experimental data published in patent US10927136B2, “Phosphorus prodrugs of pyrazolo-substituted pyrimidine sGC stimulators” (Cyclerion Therapeutics, Inc., priority 2016, dated 2021).
# What was measured:
# [1] = Rat PK following intravenous and oral dosing; type: in vivo, male Sprague-Dawley rats
# Experimental: PK in rats was determined following intravenous and oral dosing.
# For the intravenous (IV) and oral (PO) experiments, two groups of 4 male Sprague-Dawley rats each were used. The PO group was dosed with 3.0 mg/kg of Compound I-1 formulated as a solution in phosphate buffered saline (PBS). The IV group was dosed with 1.0 mg/kg of Compound I-1 formulated as a solution in phosphate buffered saline (PBS). IV doses were administered through an indwelling catheter in the jugular vein. Following dose administration, the catheter was flushed with ca. 0.25 mL of saline. PO doses were delivered to the stomach using a syringe and gavage tube. Following oral dosage administration, the gavage tube was flushed with approximately 0.5 mL of water to ensure complete delivery of the full dose.
# Plasma samples were collected as follows: for the IV and PO experiments, samples were collected at 5 min, 15 min, 30 min, 1 hour, 2 hours, 4 hours, 6 hours, 8 hours, 12 hours, 16 hours, 20 hours and 24 hours, post-dosing. Blood samples (0.25 mL) were collected from the jugular vein. These samples were kept on ice until processed for plasma. Blood samples were centrifuged at 3200 rpm for 5 minutes at approximately 5° C. within 1 hour of collection. Plasma was directly transferred to a 96-well plate tube (0.125 mL). Plug caps were placed on the tubes and the tubes frozen at approximately −70° C. and stored until analysis.
# Plasma was collected and analyzed for the presence of Compound I-1 and Intermediate 3 derived from Compound I-1.
# Intermediate 3, Compound I-1 and the internal standard (IS, Compound Z) were extracted from plasma by precipitation. Samples were analyzed using liquid chromatography (LC) with tandem mass spectrometric detection (MS/MS) using electrospray ionization. The standard curve range was from 0.1 to 400 ng/mL.
# Thawed plasma samples and the required amount of plasma for standards, blanks and dilutions. Prepared crash solution: room temp ACN containing 1 ng/mL Compound Z as Internal Standard. Created a 1× mixed (Intermediate 3 and Compound I-1) standard curve by diluting the 100× stocks (5 uL of each 100× standard into 495 uL of plasma). Transferred 50 uL of each plasma sample/dilution, standard, or blank. Added 200 uL of the crash solution containing IS. Vortexed for 5 minutes. Centrifuged at 16,000 g at room temperature for 10 min. Transferred 200 uL of each supernatant to a plate. Dried under nitrogen in a TurboVap at 55° C. Re-suspended each sample in 50 uL of 0.1% Formic Acid, covered and vortexed. Analyzed by LC-MSMS.
# HEK = molecular target: T1, HEK (Homo sapiens, UniProt Q02108+Q02153); assay: HEK EC50 quoted in rat PO PK table (assay version not stated); type: cell-based; details: listed in rat PO PK table for Intermediate 3
# T1 construct: sGC enzyme activity values in HEK cells; endogenous in cells; host or cells: HEK cells
# T1 sequence (Q02153 1-619): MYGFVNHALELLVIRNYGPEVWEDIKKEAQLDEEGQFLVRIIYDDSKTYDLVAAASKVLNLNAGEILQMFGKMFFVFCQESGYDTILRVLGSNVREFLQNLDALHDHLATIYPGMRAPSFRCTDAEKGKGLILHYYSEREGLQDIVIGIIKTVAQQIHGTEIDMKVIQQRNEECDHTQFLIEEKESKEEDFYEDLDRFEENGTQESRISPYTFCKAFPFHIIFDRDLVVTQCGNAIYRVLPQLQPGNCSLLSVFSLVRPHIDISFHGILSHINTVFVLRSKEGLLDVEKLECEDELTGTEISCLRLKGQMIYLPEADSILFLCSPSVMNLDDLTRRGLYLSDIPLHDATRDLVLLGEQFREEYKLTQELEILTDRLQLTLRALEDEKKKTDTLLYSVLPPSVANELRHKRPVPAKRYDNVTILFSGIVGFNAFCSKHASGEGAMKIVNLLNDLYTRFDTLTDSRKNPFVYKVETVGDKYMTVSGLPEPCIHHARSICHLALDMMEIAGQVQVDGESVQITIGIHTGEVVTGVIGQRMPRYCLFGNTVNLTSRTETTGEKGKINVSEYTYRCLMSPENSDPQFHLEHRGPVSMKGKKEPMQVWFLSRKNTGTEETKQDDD
# T1 sequence (Q02108 1-690): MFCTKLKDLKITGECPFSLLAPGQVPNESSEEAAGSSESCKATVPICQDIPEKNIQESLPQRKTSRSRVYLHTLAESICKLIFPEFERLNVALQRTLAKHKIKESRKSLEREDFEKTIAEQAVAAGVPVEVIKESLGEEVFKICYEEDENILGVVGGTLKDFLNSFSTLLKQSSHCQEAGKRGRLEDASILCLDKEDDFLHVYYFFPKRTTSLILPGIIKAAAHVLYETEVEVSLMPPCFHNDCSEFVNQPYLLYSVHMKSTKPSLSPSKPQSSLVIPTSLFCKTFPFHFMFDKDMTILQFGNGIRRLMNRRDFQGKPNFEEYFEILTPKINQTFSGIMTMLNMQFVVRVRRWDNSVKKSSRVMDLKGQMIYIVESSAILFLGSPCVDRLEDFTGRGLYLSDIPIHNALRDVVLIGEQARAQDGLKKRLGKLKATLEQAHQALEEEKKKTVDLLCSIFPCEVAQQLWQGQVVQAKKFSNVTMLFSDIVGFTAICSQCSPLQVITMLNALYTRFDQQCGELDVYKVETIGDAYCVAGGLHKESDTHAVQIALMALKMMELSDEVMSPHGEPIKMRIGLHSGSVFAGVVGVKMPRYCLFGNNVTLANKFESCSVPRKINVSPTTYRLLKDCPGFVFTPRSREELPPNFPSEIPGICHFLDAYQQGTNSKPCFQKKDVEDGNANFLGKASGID
# [2] = male, Sprague-Dawley, plasma, Compound I-1 1 mg/kg IV in PBS, analyte Compound I-1
SMILES,prodrug in plasma samples ([1]; following PO dosing of Compound I-1 3.0 mg/kg),"AUC(0-inf) [1, 2] [ng·h/mL]","Cmax [1, 2] [ng/mL]","clearance [1, 2] [mL/min/kg]","half-life ([1]; male, Sprague-Dawley, plasma, iv, 1 mg/kg, Compound I-1 1 mg/kg IV in PBS, analyte Compound I-1) [min]",EC50 (HEK) [nM]
O=P(O)(O)OC(CNc1nc(-c2cc(-c3ccon3)n(Cc3ccccc3F)n2)ncc1F)(C(F)(F)F)C(F)(F)F [Compound I-1],not observed in any plasma samples,549,2780 ± 2450,34.3,~9,
OC(CNc1nc(-c2cc(-c3ccon3)n(Cc3ccccc3F)n2)ncc1F)(C(F)(F)F)C(F)(F)F [Intermediate 3],,,,,,100
